Where two headings read alike, the source gives them in different places.
What was measured:
Candida spp. = experiment: Growth on Flexicult plate, susceptibility/resistance to the five antibiotics (FIG. 4, Table A); format: cell-based
Description: (§1) The kit was developed for urine culture in the primary health care setting. It is designed preferably as a nine cm Petri dish divided into six compartments: One larger compartment for quantitative analysis and five smaller compartments for susceptibility testing. The agar in each small compartment contains one of five antimicrobials (for Denmark and Scandinavia preferably: trimethoprim, sulfamethizole, ampicillin, nitrofurantoin and mecillinam (amdinocillin)) at a concentration adjusted to the breakpoint, such that growth in these compartments indicates resistance, and no growth indicates susceptibility. The Petri dish preferably has higher sides, approximately 2.48 cm, than the usual dish, i.e. ca. 1.48 cm. This allows a larger amount, maximum 100 ml, of urine to be poured onto the dish for inoculation.
(§2) Reading the susceptibility of the bacterial growth: Each bacterium (if more than one) is read individually: The growth in each of the antibiotic fields is compared with the growth on the control agar. […] If there is no growth (or substantially less than the control agar), then the bacterium is considered to be susceptible to the antibiotic. […] When nitrofurantoin and mecillinam are used as antibiotics, a few single colonies may be seen of the same type as the bacterium on the control agar: These are not considered to be resistant mutants but “persisters,” i.e. if retested they will appear susceptible. This is commonly seen also by disc diffusion especially for mecillinam.

Citrobacter spp. = experiment: as above; format: cell-based
Description: as §1, §2

E. coli [1] = experiment: as above; format: cell-based
Description: as §1, §2

E. faecalis [2] = experiment: as above; format: cell-based
Description: as §1, §2

E. faecium [3] = experiment: as above; format: cell-based
Description: as §1, §2

Enterobacter spp = experiment: as above; format: cell-based
Description: as §1, §2

Klebsiella spp. = experiment: as above; format: cell-based
Description: as §1, §2

Morganella spp. = experiment: as above; format: cell-based
Description: as §1, §2

P. aureginosa = experiment: as above; format: cell-based
Description: as §1, §2

P. vulgaris [4] = experiment: as above; format: cell-based
Description: as §1, §2

Proteus mirabilis = experiment: as above; format: cell-based
Description: as §1, §2

S. saprophyticus [5] = experiment: as above; format: cell-based
Description: as §1, §2

E. coli [6] = experiment: Growth of E. coli in antibiotic compartments of the platform (FIG. 3); format: cell-based; conditions: illustrated E. coli of FIG. 3
Description: The photos show growth of E. coli at different quantities of bacteria/ml urine.

[7] = Stability of the antimicrobial in the semi-solid media; format: physicochemical
Description: Stability of the antimicrobial in the semi-solid media may depend on the pH-value. The pH-value should preferably not exceed certain limits as this will influence the antimicrobial effect. The stability of Ampicillin and Mecillinam has been improved by adjusting the pH-value of the semi-solid media to 6.0.

E. coli [8] = test system: E. coli; parameters: key: Susceptible = S; Resistant = R; conditions: cited from earlier work
Citrobacter = test system: Citrobacter; parameters: key: Susceptible = S; Resistant = R; conditions: cited from earlier work
Klebsiella = test system: Klebsiella; parameters: key: Susceptible = S; Resistant = R; conditions: cited from earlier work
Enterobacter = test system: Enterobacter; parameters: key: Susceptible = S; Resistant = R; conditions: cited from earlier work
P. mirabilis = test system: P. mirabilis; parameters: key: Susceptible = S; Resistant = R; conditions: cited from earlier work
P. vulgaris [9] = test system: P. vulgaris; parameters: key: Susceptible = S; Resistant = R; conditions: cited from earlier work
Morganella = test system: Morganella; parameters: key: Susceptible = S; Resistant = R; conditions: cited from earlier work
S. saprophyticus [10] = test system: S. saprophyticus; parameters: key: Susceptible = S; Resistant = R; conditions: cited from earlier work
E. faecalis [11] = test system: E. faecalis; parameters: key: Susceptible = S; Resistant = R; conditions: cited from earlier work
E. faecium [12] = test system: E. faecium; parameters: key: Susceptible = S; Resistant = R; conditions: cited from earlier work
S. agalactiae = test system: S. agalactiae; parameters: key: Susceptible = S; Resistant = R; conditions: cited from earlier work
Pseud. Aeruginosa = test system: Pseud. Aeruginosa; parameters: key: Susceptible = S; Resistant = R; conditions: cited from earlier work
Candida sp. = test system: Candida sp.; parameters: key: Susceptible = S; Resistant = R; conditions: cited from earlier work
E. coli [13] = conditions: cited from earlier work
E. coli [14] = conditions: 1142 E. coli outpatient urinary isolates, USA and Canada; cited from earlier work
[15] = test system: Staphylococcus saprophyticus ATCC 49907; conditions: 32 mg/l nitrofurantoin; 10^5 CFU/ml suspension, 18-24 hours at 37° C.

SMILES: CC1(C)SC2C(NC(=O)C(N)c3ccccc3)C(=O)N2C1C(=O)O (centres unmarked) [Ampicillin, 7-(2-amino-2-phenyl-acetyl)amino-3,3-dimethyl-6-oxo-2-thia-5-azabicyclo[3.2.0]heptane-4-carboxylic acid]
- Susceptibility = S or Resistance = R (Candida spp.): R
- Susceptibility = S or Resistance = R (Citrobacter spp.): R
- Susceptibility = S or Resistance = R (E. coli [1]): R
- Susceptibility = S or Resistance = R (E. faecalis [2]): S
- Susceptibility = S or Resistance = R (E. faecium [3]): S
- Susceptibility = S or Resistance = R (Enterobacter spp): R
- Susceptibility = S or Resistance = R (Klebsiella spp.): R
- Susceptibility = S or Resistance = R (Morganella spp.): R
- Susceptibility = S or Resistance = R (P. aureginosa): R
- Susceptibility = S or Resistance = R (P. vulgaris [4]): R/S
- Susceptibility = S or Resistance = R (Proteus mirabilis): S
- Susceptibility = S or Resistance = R (S. saprophyticus [5]): S
- resistant or susceptible (growth in antibiotic compartment) (E. coli [6]): resistant
- stability in the semi-solid media [7]: improved
- Normal susceptibility/resistance (E. coli [8]): S
- Normal susceptibility/resistance (Citrobacter): R
- Normal susceptibility/resistance (Klebsiella): R
- Normal susceptibility/resistance (Enterobacter): R
- Normal susceptibility/resistance (P. mirabilis): S
- Normal susceptibility/resistance (P. vulgaris [9]): R
- Normal susceptibility/resistance (Morganella): R
- Normal susceptibility/resistance (S. saprophyticus [10]): S
- Normal susceptibility/resistance (E. faecalis [11]): S
- Normal susceptibility/resistance (E. faecium [12]): S
- Normal susceptibility/resistance (S. agalactiae): S
- Normal susceptibility/resistance (Pseud. Aeruginosa): R
- Normal susceptibility/resistance (Candida sp.): R
- Antimicrobial resistance of E. coli (resistance in percent) (E. coli [13]; Austria, n 126): 17.5%
- Antimicrobial resistance of E. coli (resistance in percent) (E. coli [13]; Belgium, n 137): 30.7%
- Antimicrobial resistance of E. coli (resistance in percent) (E. coli [13]; Canada, n 166): 29.5%
- Antimicrobial resistance of E. coli (resistance in percent) (E. coli [13]; Denmark, n 85): 22.4%
- Antimicrobial resistance of E. coli (resistance in percent) (E. coli [13]; Finland, n 182): 19.8%
- Antimicrobial resistance of E. coli (resistance in percent) (E. coli [13]; France, n 199): 27.6%
- Antimicrobial resistance of E. coli (resistance in percent) (E. coli [13]; Germany, n 138): 29.0%
- Antimicrobial resistance of E. coli (resistance in percent) (E. coli [13]; Greece, n 132): 22.0%
- Antimicrobial resistance of E. coli (resistance in percent) (E. coli [13]; Ireland, n 154): 44.8%
- Antimicrobial resistance of E. coli (resistance in percent) (E. coli [13]; Luxembourg, n 24): 41.7%
- Antimicrobial resistance of E. coli (resistance in percent) (E. coli [13]; Norway, n 168): 23.8%
- Antimicrobial resistance of E. coli (resistance in percent) (E. coli [13]; Portugal, n 86): 45.3%
- Antimicrobial resistance of E. coli (resistance in percent) (E. coli [13]; Spain, n 191): 53.9%
- Antimicrobial resistance of E. coli (resistance in percent) (E. coli [13]; Sweden, n 193): 15.5%
- Antimicrobial resistance of E. coli (resistance in percent) (E. coli [13]; Switzerland, n 122): 27.0%
- Antimicrobial resistance of E. coli (resistance in percent) (E. coli [13]; The Netherlands, n 195): 28.7%
- Antimicrobial resistance of E. coli (resistance in percent) (E. coli [13]; Total, n 2478): 29.8%
- Antimicrobial resistance of E. coli (resistance in percent) (E. coli [13]; United Kingdom, n 180): 37.2%
- Overall resistance in E. coli (E. coli [14]): 37.7%

SMILES: O=C1CN(N=Cc2ccc([N+](=O)[O-])o2)C(=O)N1 [Nitrofurantoin, 1-[(5-nitro-2-furyl)methylideneamino]imidazolidine-2,4-dione]
- Susceptibility = S or Resistance = R (Candida spp.): R
- Susceptibility = S or Resistance = R (Citrobacter spp.): S
- Susceptibility = S or Resistance = R (E. coli [1]): S
- Susceptibility = S or Resistance = R (E. faecalis [2]): R
- Susceptibility = S or Resistance = R (E. faecium [3]): R
- Susceptibility = S or Resistance = R (Enterobacter spp): S
- Susceptibility = S or Resistance = R (Klebsiella spp.): R
- Susceptibility = S or Resistance = R (Morganella spp.): R/S
- Susceptibility = S or Resistance = R (P. aureginosa): R
- Susceptibility = S or Resistance = R (P. vulgaris [4]): R/S
- Susceptibility = S or Resistance = R (Proteus mirabilis): S
- Susceptibility = S or Resistance = R (S. saprophyticus [5]): S
- resistant or susceptible (growth in antibiotic compartment) (E. coli [6]): susceptible
- reduction in the growth of/numbers of colonies formed [15]: at least 4 log CFU/ml
- Normal susceptibility/resistance (E. coli [8]): S
- Normal susceptibility/resistance (Citrobacter): S
- Normal susceptibility/resistance (Klebsiella): S/R
- Normal susceptibility/resistance (Enterobacter): S/R
- Normal susceptibility/resistance (P. mirabilis): S/R
- Normal susceptibility/resistance (P. vulgaris [9]): R
- Normal susceptibility/resistance (Morganella): R
- Normal susceptibility/resistance (S. saprophyticus [10]): S
- Normal susceptibility/resistance (E. faecalis [11]): S
- Normal susceptibility/resistance (E. faecium [12]): S
- Normal susceptibility/resistance (S. agalactiae): S
- Normal susceptibility/resistance (Pseud. Aeruginosa): R
- Normal susceptibility/resistance (Candida sp.): R
- Antimicrobial resistance of E. coli (resistance in percent) (E. coli [13]; Austria, n 126): 0.8%
- Antimicrobial resistance of E. coli (resistance in percent) (E. coli [13]; Belgium, n 137): 0.7%
- Antimicrobial resistance of E. coli (resistance in percent) (E. coli [13]; Canada, n 166): 1.2%
- Antimicrobial resistance of E. coli (resistance in percent) (E. coli [13]; Denmark, n 85): 1.2%
- Antimicrobial resistance of E. coli (resistance in percent) (E. coli [13]; Finland, n 182): 0.5%
- Antimicrobial resistance of E. coli (resistance in percent) (E. coli [13]; France, n 199): 1.0%
- Antimicrobial resistance of E. coli (resistance in percent) (E. coli [13]; Germany, n 138): 0.7%
- Antimicrobial resistance of E. coli (resistance in percent) (E. coli [13]; Greece, n 132): 3.0%
- Antimicrobial resistance of E. coli (resistance in percent) (E. coli [13]; Ireland, n 154): 0%
- Antimicrobial resistance of E. coli (resistance in percent) (E. coli [13]; Luxembourg, n 24): 4.2%
- Antimicrobial resistance of E. coli (resistance in percent) (E. coli [13]; Norway, n 168): 0%
- Antimicrobial resistance of E. coli (resistance in percent) (E. coli [13]; Portugal, n 86): 5.8%
- Antimicrobial resistance of E. coli (resistance in percent) (E. coli [13]; Spain, n 191): 4.2%
- Antimicrobial resistance of E. coli (resistance in percent) (E. coli [13]; Sweden, n 193): 0%
- Antimicrobial resistance of E. coli (resistance in percent) (E. coli [13]; Switzerland, n 122): 0.8%
- Antimicrobial resistance of E. coli (resistance in percent) (E. coli [13]; The Netherlands, n 195): 1.0%
- Antimicrobial resistance of E. coli (resistance in percent) (E. coli [13]; Total, n 2478): 1.2%
- Antimicrobial resistance of E. coli (resistance in percent) (E. coli [13]; United Kingdom, n 180): 0%
- Overall resistance in E. coli (E. coli [14]): 1.1%
